{
  "source": "patent US20030207819A1",
  "about": "“Compositions and methods for treating inflammatory connective tissue diseases” (priority 2002, published 2003)",
  "key": {"[1]": {"tested_on": "patient with chondrocalcinosis leading to pseudorheumatoid pseudogout syndrome", "experiment": "Example 3: clinical observation of patient on clarithromycin", "assay_type": "in vivo, human", "conditions": "person; clarithromycin 500 mg b.i.d. begun two weeks prior for pneumonia", "protocol": "A patient has severe ditTuse generalized chondrocalcinosis leading to pseudorheumatoid pseudogout syndrome. Given the intensity of their chronic synovitis and the lack of response to steroids as well as NSAIDs, they were put on methotrexate, 10 mg/week and infliximab ([…]®, Centocor, Inc.), after which they did satisfactorily. The patient had bilateral total knee replacements and, subsequently was taken off the infliximab when they developed a knee infection postoperatively. The patient continued to have diffuse aches and pains and joint swelling. When seen in the office on Mar. 12, 2002, they spontaneously asked whether the medicine they were taking for their pneumonia could have an effect on their arthritis. Apparently they had begun clarithromycin 500 mg b.i.d. for their pneumonia two weeks prior and said they had “never felt as well” with respect to their joint symptoms as they had during the subsequent several days. They continued to feel much improved and asked if they could stay on the antibiotic."}, "[2]": {"tested_on": "patient with chondrocalcinosis leading to pseudorheumatoid pseudogout syndrome", "experiment": "Example 4: clarithromycin re-challenge of Example 3 patient, symptoms and laboratory assessments", "assay_type": "in vivo, human", "protocol": "Subsequent to the observations made in Example 3, the patient was re-challenged with clarithromycin, and re-evaluated as to symptomatic efficiency. In parallel with clinical observations, laboratory assessments including erythrocyte sedimentation rate, C-reactive 1 5 protein, and serum interleukins 1 and 6 were measured. The laboratory results are illustrated in Table 2.\nOn Jun. 15, 2002 the patient from Example 3 underwent a right pneumonectomy for treatment of recurrent lung cancer. During that hospitalization, clarithromycin was discontinued.\nThe patient underwent formal re-challenge with clarithromycin on Aug. 19, 2002 (Table 2). At that time their medications included ibuprofen at 400 mg/day, acetaminophen at 500 mg/as needed, prednisone at 5 mg/daily, CELEXA™ (Forest Pharmaceuticals, Inc.) at […], REMURON® (Organon Inc.) at 7.5 mg/h.s., DURICEF® (Bristol) at 500 mg b.i.d., TIMOPTIC® eye drops (Merck & Co.), and multi-vitamins. […] Clarithromycin at 500 mg b.i.d. was restarted on Aug. 20, 2002. When seen on Aug. […] 19, 2002. […] 28, 2002. On Sep. […] Ibuprofen was decreased to […] on Sep. 5, 2002. On Sep. […] On Sep."}, "[3]": {"conditions": "Aug. 27, 2002, on clarithromycin"}, "[4]": {"conditions": "Oct. 8, 2002, off clarithromycin"}, "[5]": {"conditions": "Sep. 4, 2002, on clarithromycin"}, "[6]": {"conditions": "Sep. 9, 2002, on clarithromycin"}, "[7]": {"conditions": "Sep. 23, 2002, off clarithromycin"}},
  "note": "Entries after “also recorded” stand apart in the source; their conditions may differ.",
  "data": [
    {"smiles": "CC[C@H]1OC(=O)[C@H](C)[C@@H](O[C@H]2C[C@@](C)(OC)[C@@H](O)[C@H](C)O2)[C@H](C)[C@@H](O[C@@H]2O[C@H](C)C[C@H](N(C)C)[C@H]2O)[C@](C)(OC)C[C@@H](C)C(=O)[C@H](C)[C@@H](O)[C@]1(C)O", "note": "[clarithromycin, 6-O-methylerythromycin]", "values": [
      {"measurement": "joint symptoms", "setting": "[1]", "result": "much improved"},
      {"measurement": "CPR", "setting": "[2]; [3]", "result": 0.74, "unit": "mg/dL"},
      {"measurement": "ESR", "setting": "[2]; [3]", "result": 18, "unit": "mm/hr"},
      {"measurement": "IL-6", "setting": "[2]; [3]", "result": 6.8, "unit": "pg/mL"},
      {"measurement": "Symptoms", "setting": "[2]; Aug. 27, 2002, on clarithromycin 500 mg BID since Aug. 20, 2002, compared to baseline Aug. 19, 2002", "result": "had not observed improvement; also recorded: No change"},
      {"measurement": "CPR", "setting": "[2]; [4]", "result": 0.77, "unit": "mg/dL"},
      {"measurement": "ESR", "setting": "[2]; [4]", "result": 10, "unit": "mm/hr"},
      {"measurement": "IL-6", "setting": "[2]; [4]", "result": 1.8, "unit": "pg/mL"},
      {"measurement": "Symptoms", "setting": "[2]; Oct. 8, 2002, off clarithromycin, prednisone 5 mg QD", "result": "continued active"},
      {"measurement": "CPR", "setting": "[2]; [5]", "result": 0.78, "unit": "mg/dL"},
      {"measurement": "ESR", "setting": "[2]; [5]", "result": 10, "unit": "mm/hr"},
      {"measurement": "IL-6", "setting": "[2]; [5]", "result": 2.5, "unit": "pg/mL"},
      {"measurement": "Symptoms", "setting": "[2]; Sep. 4, 2002, on clarithromycin, ibuprofen increased to 800 mg/day on Aug. 28, 2002", "result": 40, "unit": "% better"},
      {"measurement": "CPR", "setting": "[2]; [6]", "result": 1.06, "unit": "mg/dL"},
      {"measurement": "ESR", "setting": "[2]; [6]", "result": 11, "unit": "mm/hr"},
      {"measurement": "IL-6", "setting": "[2]; [6]", "result": 4.5, "unit": "pg/mL"},
      {"measurement": "Symptoms", "setting": "[2]; Sep. 9, 2002, on clarithromycin, discontinued at this visit, ibuprofen 600 mg/day", "result": "No change"},
      {"measurement": "Symptoms", "setting": "[2]; Sep. 16, 2002, off clarithromycin, ibuprofen 400 mg/day", "result": "Worse"},
      {"measurement": "IL-6", "setting": "[2]; Sep. 16, 2002, one week following clarithromycin discontinuation, baseline 2.2", "result": 33.1, "unit": "pg/mL"},
      {"measurement": "ESR", "setting": "[2]; [7]", "result": 37, "unit": "mm/hr"},
      {"measurement": "IL-6", "setting": "[2]; [7]", "result": 6.4, "unit": "pg/mL"},
      {"measurement": "Symptoms", "setting": "[2]; [7]", "result": "continued worsening; also recorded: Worse"},
      {"measurement": "CPR", "setting": "[2]; Sep. 23, 2002, off clarithromycin, baseline 0.85", "result": 3.51, "unit": "mg/dL"},
      {"measurement": "joints", "setting": "[2]; clarithromycin begun again as antimicrobial therapy after pneumonectomy", "result": "once again improved"},
      {"measurement": "arthritis symptoms", "setting": "[2]; five to six days following discontinuation of clarithromycin, hospitalization June 2002", "result": "significantly worse"},
      {"measurement": "ESR", "setting": "[2]; off clarithromycin, increase from 11 mm at baseline, date not given in the text", "result": 37, "unit": "mm"},
      {"measurement": "change in IL-1", "setting": "[2]; over the re-challenge Aug. 19 to Oct. 8, 2002", "result": "No significant change"}
    ]}
  ]
}
